The text below walks through data of PubChem BioAssay AID248 (DTP/NCI, 2004).

SMILES strings stand for the structures. Several values for one entry are separate records, joined by “and”; a condition that tells them apart may be missing. Equal values may be shown once. Toxic doses and inconclusive results are not listed.

The subject of the assay is L1210 leukemia ip in BDF1 mice, survival T/C. Nature of the assay: NCI In Vivo Anticancer Drug Screen. Data for tumor model L1210 Leukemia (intraperitoneal) in B6D2F1 (BDF1) mice. Particulars: higher = longer survival. Put shortly:
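Value reflects the ratio of survival in compound-treated mice to survival in vehicle-treated controls, with both groups carrying the same transplanted tumor.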

The mark [1] stands for this setting: endpoint: mean survival time, dose: 100.0 mg/kg/injection, schedule: Q01DX009 (ip), vehicle: saline with Tween-80.
Setting [2] is: endpoint: mean survival time, dose: 200.0 mg/kg/injection, schedule: Q01DX009 (ip), vehicle: saline with Tween-80.
Setting [3] is: endpoint: mean survival time, dose: 100.0 mg/kg/injection, schedule: Q04DX003 (ip), vehicle: saline with Tween-80.
Setting [4] is: endpoint: mean survival time, dose: 200.0 mg/kg/injection, schedule: Q04DX003 (ip), vehicle: saline with Tween-80.
The mark [5] stands for this setting: endpoint: mean survival time, dose: 400.0 mg/kg/injection, schedule: Q04DX003 (ip), vehicle: saline with Tween-80.
Where [6] appears, read: endpoint: mean survival time, dose: 100.0 mg/kg/injection, schedule: Q01DX001 (ip), vehicle: other.
Setting [7] is: endpoint: mean survival time, dose: 200.0 mg/kg/injection, schedule: Q01DX001 (ip), vehicle: other.
Setting [8] is: endpoint: mean survival time, dose: 400.0 mg/kg/injection, schedule: Q01DX001 (ip), vehicle: other.
Where [9] appears, read: endpoint: mean survival time, dose: 25.0 mg/kg/injection, schedule: Q01DX009 (ip), vehicle: Klucel (hydroxypropylcellulose) (HPC).
Where [10] appears, read: endpoint: mean survival time, dose: 50.0 mg/kg/injection, schedule: Q01DX009 (ip), vehicle: Klucel (hydroxypropylcellulose) (HPC).
The mark [11] stands for this setting: endpoint: mean survival time, dose: 100.0 mg/kg/injection, schedule: Q04DX002 (ip), vehicle: Klucel (hydroxypropylcellulose) (HPC).
The mark [12] stands for this setting: endpoint: mean survival time, dose: 100.0 mg/kg/injection, schedule: Q01DX001 (ip), vehicle: carboxymethylcellulose (CMC).
Where [13] appears, read: endpoint: mean survival time, dose: 200.0 mg/kg/injection, schedule: Q01DX001 (ip), vehicle: carboxymethylcellulose (CMC).
Setting [14] is: endpoint: mean survival time, dose: 400.0 mg/kg/injection, schedule: Q01DX001 (ip), vehicle: carboxymethylcellulose (CMC).
Where [15] appears, read: endpoint: mean survival time, dose: 100.0 mg/kg/injection, schedule: Q01DX009 (ip), vehicle: other.
Setting [16] is: endpoint: mean survival time, dose: 100.0 mg/kg/injection, schedule: Q04DX003 (ip), vehicle: other.
[17] abbreviates: endpoint: mean survival time, dose: 200.0 mg/kg/injection, schedule: Q04DX003 (ip), vehicle: other.
The mark [18] stands for this setting: endpoint: mean survival time, dose: 400.0 mg/kg/injection, schedule: Q04DX003 (ip), vehicle: other.
[19] abbreviates: endpoint: mean survival time, dose: 100.0 mg/kg/injection, schedule: Q01DX001 (ip), vehicle: saline.
[20] abbreviates: endpoint: mean survival time, dose: 200.0 mg/kg/injection, schedule: Q04DX002 (ip), vehicle: Klucel (hydroxypropylcellulose) (HPC).

In the case of `Cc1cc(N(CCCl)CCCl)ccc1N=Nc1ccccc1`, the T/C by setting is: (endpoint: median survival time, dose: 100.0 mg/kg/injection, schedule: Q01DX009 (ip), vehicle: Klucel (hydroxypropylcellulose) (HPC)) 98 % of control; (endpoint: median survival time, dose: 200.0 mg/kg/injection, schedule: Q01DX009 (ip), vehicle: Klucel (hydroxypropylcellulose) (HPC)) 97 % of control; (endpoint: median survival time, dose: 400.0 mg/kg/injection, schedule: Q01DX009 (ip), vehicle: Klucel (hydroxypropylcellulose) (HPC)) 93 % of control.

As to `CC1(C(O)(c2ccccc2)c2ccccc2)CC1`, the T/C was 109 % of control (endpoint: mean survival time, dose: 25.0 mg/kg/injection, schedule: Q04DX002 (sc), vehicle: olive oil, sesame oil, peanut oil); 97 % of control (endpoint: mean survival time, dose: 50.0 mg/kg/injection, schedule: Q04DX002 (sc), vehicle: olive oil, sesame oil, peanut oil); 106 % of control (endpoint: mean survival time, dose: 100.0 mg/kg/injection, schedule: Q04DX002 (sc), vehicle: olive oil, sesame oil, peanut oil).

With `CCOC(=O)CNC(=O)Nc1ccc(OC)cc1`, the T/C is, setting by setting: under setting [1], 100 % of control; under setting [2], 93 % of control; (endpoint: mean survival time, dose: 400.0 mg/kg/injection, schedule: Q01DX009 (ip), vehicle: saline with Tween-80) 100 % of control.

Consider `CS(=O)(=O)OCCN(CCOS(C)(=O)=O)c1ccc(C=Nc2ccc(C(=O)O)cc2)cc1`, for which the T/C is, setting by setting: (endpoint: mean survival time, dose: 2.5 mg/kg/injection, schedule: Q04DX003 (ip), vehicle: Klucel (hydroxypropylcellulose) (HPC)) 114 % of control; (endpoint: mean survival time, dose: 20.0 mg/kg/injection, schedule: Q04DX003 (ip), vehicle: Klucel (hydroxypropylcellulose) (HPC)) 170 % of control; (endpoint: mean survival time, dose: 40.0 mg/kg/injection, schedule: Q04DX003 (ip), vehicle: Klucel (hydroxypropylcellulose) (HPC)) 112 % of control.

On to `CCCCCCCCCCCCOc1ccc(C(C)(C)C)cc1`, for which the T/C is, setting by setting: (endpoint: mean survival time, dose: 100.0 mg/kg/injection, schedule: Q01DX007 (ip), vehicle: saline with Tween-80) 97 % of control; under setting [3], 100 % of control; (endpoint: mean survival time, dose: 200.0 mg/kg/injection, schedule: Q01DX007 (ip), vehicle: saline with Tween-80) 96 % of control; under setting [4], 95 % of control; (endpoint: mean survival time, dose: 400.0 mg/kg/injection, schedule: Q01DX007 (ip), vehicle: saline with Tween-80) 97 % of control; under setting [5], 101 % of control.

On to `Fc1ccc(-c2n[nH]c3c2CCCc2ccccc2-3)cc1`, for which the T/C by setting is: under setting [3], 113 % of control; under setting [4], 111 % of control; under setting [5], 102 % of control.

In the case of `OC(C[n+]1ccccc1)c1c[nH]c2ccccc12` (configuration not stated), the T/C (endpoint: mean survival time, dose: 75.0 mg/kg/injection, schedule: Q01DX001 (ip), vehicle: other) was 107 % of control.

Consider `CN1c2ccc(Br)c[c]2[Sn]([CH3])([CH3])[c]2cc(Br)ccc21`, for which the T/C runs as follows: under setting [6], 96 % of control; under setting [7], 97 % of control; under setting [8], 92 % of control.

Take `C[C@]12CC[C@@H]3c4cc([N+]#N)c([O-])cc4CC[C@H]3[C@@H]1CCC2=O`: the T/C runs as follows: under setting [9], 103 % of control; (endpoint: mean survival time, dose: 25.0 mg/kg/injection, schedule: Q04DX002 (ip), vehicle: Klucel (hydroxypropylcellulose) (HPC)) 96 % of control; under setting [10], 92 % of control; (endpoint: mean survival time, dose: 50.0 mg/kg/injection, schedule: Q04DX002 (ip), vehicle: Klucel (hydroxypropylcellulose) (HPC)) 122 % of control; under setting [11], 100 % of control and 101 % of control.

`COC1C(CO)OC(n2cnc3c(N)ncnc32)C1O` (configuration not stated): the T/C was 102 % of control (endpoint: mean survival time, dose: 50.0 mg/kg/injection, schedule: Q01DX001 (ip), vehicle: carboxymethylcellulose (CMC)); 110 % of control under setting [12]; 116 % of control under setting [13]; 98 % of control under setting [14].

In the case of `Cc1ccc(C(=O)CCCC(=O)c2ccc(C)cc2)cc1`, the T/C (endpoint: mean survival time, dose: 50.0 mg/kg/injection, schedule: Q01DX001 (ip), vehicle: other) was 103 % of control; the T/C under setting [6] was 91 % of control; the T/C under setting [7] was 97 % of control; the T/C under setting [8] was 95 % of control.

As for `COc1ccc(CN(CC(=O)O)S(C)(=O)=O)cc1`, the T/C is 110 % of control under setting [15]; 90 % of control under setting [16]; 107 % of control (endpoint: mean survival time, dose: 200.0 mg/kg/injection, schedule: Q01DX009 (ip), vehicle: other); 98 % of control under setting [17]; 111 % of control (endpoint: mean survival time, dose: 400.0 mg/kg/injection, schedule: Q01DX009 (ip), vehicle: other); 95 % of control under setting [18].

As for `CN(C)/C(N)=N/S(=O)(=O)c1ccc(C#N)cc1`, the T/C was 88 % of control under setting [19]; 96 % of control (endpoint: mean survival time, dose: 200.0 mg/kg/injection, schedule: Q01DX001 (ip), vehicle: saline); 94 % of control (endpoint: mean survival time, dose: 400.0 mg/kg/injection, schedule: Q01DX001 (ip), vehicle: saline).

As to `O=[N+]([O-])c1ccc(F)c(Cl)c1`, the T/C was 98 % of control under setting [15], 105 % of control under setting [16], 100 % of control under setting [17] and 90 % of control under setting [18].

On to `COc1cc(Cl)ccc1NC(=O)Oc1ccc2ccccc2c1`, for which the T/C is 108 % of control under setting [11]; 90 % of control under setting [20]; 104 % of control (endpoint: mean survival time, dose: 400.0 mg/kg/injection, schedule: Q04DX002 (ip), vehicle: Klucel (hydroxypropylcellulose) (HPC)).

In the case of `CCCc1cc(CCC)n2nc(N)nc2n1`, the T/C is, setting by setting: (endpoint: mean survival time, dose: 50.0 mg/kg/injection, schedule: Q01DX009 (ip), vehicle: saline with Tween-80) 100 % of control; under setting [1], 98 % of control; under setting [2], 96 % of control.

As to `Cc1ccc(S(=O)(=O)OC2C(C)(C)C(=O)C2(C)C)cc1`, the T/C is, setting by setting: under setting [12], 97 % of control; under setting [13], 92 % of control; under setting [14], 92 % of control.

In the case of `Cc1c(C#N)c2n(c1C)CCN2`, the T/C reads like this: under setting [9], 105 % of control; under setting [10], 97 % of control; (endpoint: mean survival time, dose: 100.0 mg/kg/injection, schedule: Q01DX001 (ip), vehicle: Klucel (hydroxypropylcellulose) (HPC)) 91 % of control; (endpoint: mean survival time, dose: 100.0 mg/kg/injection, schedule: Q01DX009 (ip), vehicle: Klucel (hydroxypropylcellulose) (HPC)) 94 % of control.

Consider `CC(=O)OC(C(O)C=O)C(O)C(O)CO` (configuration not stated) (tested in a mixture with another compound), for which the T/C runs as follows: under setting [11], 107 % of control; under setting [20], 88 % of control.

Consider `NS(=O)(=O)c1ccc(Cc2[nH]c(=O)[nH]c(=O)c2Br)cc1`, for which the T/C is 101 % of control (endpoint: mean survival time, dose: 25.0 mg/kg/injection, schedule: Q01DX001 (ip), vehicle: saline); 95 % of control (endpoint: mean survival time, dose: 50.0 mg/kg/injection, schedule: Q01DX001 (ip), vehicle: saline); 101 % of control under setting [19].

`COc1ccc(C2OCC(c3ccccc3)O2)cc1` (configuration not stated): the T/C runs as follows: (endpoint: mean survival time, dose: 222.0 mg/kg/injection, schedule: Q01DX Z (ip), vehicle: methylcellulose (MC)) 93 % of control; (endpoint: mean survival time, dose: 500.0 mg/kg/injection, schedule: Q01DX Z (ip), vehicle: methylcellulose (MC)) 93 % of control.

Take `CCC[CH2][Sn]1([CH2]CCC)[CH2]CC(=O)[O]1`: the T/C is 103 % of control (endpoint: mean survival time, dose: 100.0 mg/kg/injection, schedule: Q04DX002 (ip), vehicle: saline with Tween-80); 95 % of control (endpoint: mean survival time, dose: 200.0 mg/kg/injection, schedule: Q04DX002 (ip), vehicle: saline with Tween-80); 92 % of control (endpoint: mean survival time, dose: 400.0 mg/kg/injection, schedule: Q04DX002 (ip), vehicle: saline with Tween-80).

Take `C[n+]1ccc(Nc2ccc(NC(=O)c3ccc(N)cc3)cc2)cc1`: the T/C (endpoint: mean survival time, dose: 12.5 mg/kg/injection, schedule: Q01DX009 (ip), vehicle: water) is 117 % of control; the T/C (endpoint: mean survival time, dose: 25.0 mg/kg/injection, schedule: Q01DX009 (ip), vehicle: water) was 107 % of control; the T/C (endpoint: mean survival time, dose: 50.0 mg/kg/injection, schedule: Q01DX009 (ip), vehicle: water) is 112 % of control.
